Data as given in patent publication US8247529B2, “Neoplasia targeting peptides and methods of using the same” (The Board of Trustees of the Leland Stanford Junior …, priority 2008, dated 2012).
“Also recorded” adds a separate entry of the source. Values belong to the substance of their own block, whether it stands above or below them.

Key:
Seg-1 cells = experiment: Peptide binding on cell lines; details: 100 μmol FITC-conjugated peptide, 15 min room temperature
Description: (§1) FITC-conjugated peptide (100 μmol) was incubated with Segl (Panel a), OE21 (Panel c), QhTERT (Panel d) cells. Peptide binding were found in plasma membrane of >90% of Seg1 cells (Panel a).
(§2) 3×10^4-5×10^4 Seg-1, OE21, QhTERT cells were grown in chamber slides.
(§3) Blocking of non-specific binding to these cells was performed by adding 200 μL of 1% BSA diluted in PBS for 30 min. The cells were then incubated with 100 μmol of the targeted FITC conjugated peptide in serum free media for 15 min in room temperature. The scrambled peptide had been used as control. Wash cells 3-time use 200 μL PBS/0.5% TWEEN 20 in room temperature. Cell were fixed by ice cold Acetone 90 second. Then mounted by Vectashield mounting medium with DAPI. Fluorescence images were collected with a confocal microscope (Nikon 1000) at 200×. The fluorescence intensity from the cells in 3 images were averaged to assess peptide binding.

GIL hTERT(HGD) cells = experiment: Peptide binding on cell lines; details: FITC-conjugated peptide
Description: as §3

TE7 cells = experiment: Peptide binding on cell lines; details: FITC-conjugated peptide
Description: as §3

[1] = test system: esophageal adenocarcinoma within Barrett's esophagus; experiment: In vivo molecular imaging, small animal model (EGJ rat, fluorescence endoscopy); details: topical 1 mL 100 μM, 5 min incubation, rinsed
Text: In vivo molecular imaging has been performed in small animal models of esophageal neoplasia to localize binding by targeted peptides. A rigid endoscope for imaging the rat esophagus consists of a 9.5 Fr (3 mm) diameter rigid Hopkins II 0 deg telescope with a 11.5 cm working length (Karl Storz Veterinary Endoscopy, Goleta, Calif.). A 3 Fr (1 mm) diameter instrument channel is available to perform tissue biopsy. Fluorescence excitation light is produced with a 450 to 475 nm passband filter that can be manually placed into the optical path of a xenon (175 W) light source, and is delivered to the endoscope via a light guide. Fluorescence images were collected with 510 nm barrier filter to block the excitation light, and detected with a color CCD camera. The molecular imaging studies were performed in the surgically-altered (EGJ) rats after 36 weeks. The rats were fasted overnight, anesthetized using inhaled isoflurane, and placed in the supine position. The extremities and incisors were restrained to prevent injury to the animal. The endoscope was inserted into the distal esophagus using ˜1 to 2 ml of air injected through an instrument port to dilate the esophageal lumen. The FITC-labeled target peptide was topically administered through the instrument channel onto the distal esophagus in a 1 mL solution diluted in PBS at a concentration of 100 μM. After incubation for 5 minutes, excess peptide was rinsed off with tap water, and binding was evaluated by fluorescence. […] A complete examination usually lasts <2 minutes.

[2] = test system: high-grade dysplasia in Barrett's esophagus; experiment: Clinical imaging (fluorescence endoscopy of distal esophagus); assay type: in vivo; details: human, topical ~3 ml 10 μM
Text: Endoscopic images collected in vivo of distal esophagus in human subject with Barrett's esophagus and high grade dysplasia on white-light endoscopy (Panel a) and fluorescence imaging (Panel b).
A prototype endoscope was used to collect fluorescence images of peptide binding from human subjects with Barrett's esophagus and high-grade dysplasia using the target peptide labeled with FITC. With IRB approval and informed consent, human subjects with a history of Barrett's esophagus and biopsy proven high-grade dysplasia scheduled for endoscopic mucosal resection were recruited into the study. After esophageal intubation, a 10 second video was collected in the white light mode. Then, ˜3 ml of peptide at a concentration of 10 μM was administered topically to the distal esophagus using a mist spray catheter. After 5 minutes for incubation, excess peptide was gently rinsed off with water, and another 10 second video was collected of the peptide targeted fluorescence image. The mucosa of the distal esophagus was then removed by endoscopic mucosal resection. Each video stream was exported into individual frames.
(§4) No distinct architectural lesions can be appreciated. […] Targeted biopsies were collected from sites suspicious for HGD, non-dysplastic Barrett's esophagus. The specimens were embedded in OCT media, cooled to […], and cut into 10 μm horizontal sections on a cryostat.

[3] = test system: Barrett's mucosa with high-grade dysplasia; experiment: Confocal fluorescence of frozen sections of targeted biopsies after clinical imaging; assay type: binding; details: biopsies after topical administration in human subjects, 400×
Description: (§5) Routine histology (H&E) of corresponding images is shown in Panel c and Panel d, magnification 400×.
as §4
(§6) The specimens were then evaluated for fluorescence on a tabletop confocal microscope, and an adjacent section was formalin fixed and stained with H&E for evaluation by two pathologists. […] Routine histology (H&E) of the corresponding images (Panels c and d) from adjacent frozen sections are also shown for purposes of comparison, magnification 400×.

[4] = test system: Barrett's mucosa with no dysplasia; experiment: as above; assay type: binding; details: biopsies after topical administration in human subjects, 400×
Description: as §5, §4, §6

[5] = test system: Seg-1 cells (esophageal adenocarcinoma); experiment: Phage binding assay (cell binding of phage clones relative to insertless phage); details: Seg-1 vs QhTERT, p<0.01
Description: Individual phage clones (2×10^11 pfu) were incubated at room temperature for 30 min with Segl and Q-hTERT cells. The columns represent the mean of measurements from three wells and the bars represent the standard deviation (SD). P-values for each group were calculated using student's t test.
According to the sequencing results some peptide sequence expressed on more than one phage clones. These phage clones had been amplified respectively for the binding assay. Seg-1 cell and Q-hTERT cell (None dysplasia Barrett's cell line) were growth in 6 well plate. 2×10^11 pfu each single clone phage were incubated with both cell in triple wells. Wild-type (no insert) phage (M13KE, New England Biolabs, Beverly, Mass.) was used as control. The incubation, two-step elution and tittering were done as mentioned above. […] Fold binding of each phage relative to none insert phage was measured. Different binding of each phage clone on Seg-1 and QhTERT were calculated using student's t test.

[6] = test system: OE21 cells (squamous esophagus carcinoma); experiment: Peptide binding on cell lines; details: 100 μmol FITC-conjugated peptide, 15 min room temperature
Description: as §1, §2, §3

[7] = test system: QhTERT (normal Barrett's) cells; experiment: Peptide binding on cell lines; details: 100 μmol FITC-conjugated peptide, 15 min room temperature
Description: as §1, §2, §3

Seg1 cells = experiment: Competitive inhibition assay; assay type: binding; details: unconjugated peptide 100, 500, 1000 μmol (5 or 10 times higher concentration) 15 min prior to FITC-conjugated peptide, P<0.01
Description: Unconjugated peptide was incubated with Seg1 cells 15 min prior to adding of FITC-conjugated peptide in three different concentrations. […] Error bars represent mean±s.e.m. for 3 images. *P<0.01.
Competitive inhibition of targeted peptide binding was evaluated by incubating the cells in culture with unconjugated (no FITC) peptide at concentrations of 100, 500, and 1000 μmol. Three fluorescence images were collected at 200× from each well of the chamber slide using the same gain and exposure time. Images selected for analysis met the following criteria: 1) 70-90% cell confluence, 2) away from the edge of each well, 3) low background binding on cell free area of slide, 4) No change in cellular morphology. The mean cell numbers under three 200× view were record to calculate the percentage of peptide binding cells. Quantification of the fluorescence intensities was done by NIH Image J software to calculate pixel value between each group under the same threshold. Differences in the mean fluorescence intensities were compared using a student's t test.

[8] = test system: Barrett's with high-grade dysplasia (HGD) tissue; experiment: Targeted peptide binding on esophageal mucosa (human tissue specimens)
Description: (§7) Specimens were incubated with 100 μmol FITC-conjugated peptide in PBS (Panels a, b, c, d). Hematoxylin and eosin staining (Panels e, f, g, h) was performed on adjacent sections to show the pathology diagnosis. In HGD tissue the binding site is a group of consecutive cells located in the lining of esophageal. In normal Barrett's mucosa the binding site is sporadic separated cells in some area of mucosa.
(§8) IRB approval was granted by the Stanford University Medical Center, the VA Palo Alto Health Care Systems, and El Camino Hospital. Human subjects with a history of Barrett's esophagus undergoing routine screening endoscopy were recruited for this study and informed consent was obtained. Subjects with coagulation abnormalities, or low tolerance for endoscopy were excluded from the study. Tissue specimens were collected using standard pinch biopsy from regions of endoscopically apparent Barrett's and squamous esophagus and duodenum mucosa. Histopathology was evaluated by two gastrointestinal pathologists in a blinded fashion according to common criteria (Goldblum, Mod Pathol 2003;16:316-24).
(§9) The tissue specimens were placed immediately after excision in an Eppendorf tube containin PBS at 4° C. PBS and incubated with100 μmol of targeted peptide ‘ASYNYDA’ for 15 minutes at room temperature. After being washed three times with PBS at 4° C., the specimens were embedded in OCT freezing compound (Sakura finetek USA), cut in 6 μm sections, and placed onto Poly-D-lysine coated slides. The tissue specimens were fixed in acetone at 4° C. for 90 seconds, counterstained with DAPI, and mounted in Vectashield. An adjacent serial section of the specimen was cut and stained with H&E for routine histology and comparison.
(§10) For each specimen 10 serial section were screened under microscope. Three highest intensity fluorescence images were collected at 400× using the same gain and exposure time. Fluorescence intensities of images were quantified by NIH Image J software to calculate pixel value between each sample under the same threshold (40, 255). Differences in the mean fluorescence intensities between four tissue types were compared using a student's t test.

[9] = test system: adjacent normal esophageal mucosa; experiment: as above; details: 100 μmol FITC-conjugated peptide in PBS, 15 min, fresh biopsy
Description: as §7, §8, §9, §10

duodenal mucosa = experiment: as above; details: 100 μmol FITC-conjugated peptide in PBS, 15 min, fresh biopsy
Description: as §7, §8, §9, §10

[10] = test system: normal (non-dysplastic) Barrett's tissue; experiment: as above; details: 100 μmol FITC-conjugated peptide in PBS, 15 min, fresh biopsy
Description: as §7, §8, §9, §10

binding to Barrett's mucosa with high-grade dysplasia (frozen section) ([3]; listed as FITC-labeled peptide): significant binding | binding to Barrett's mucosa with high-grade dysplasia (frozen section) ([3]; listed as target peptide): Significant binding | binding to Barrett's mucosa with no dysplasia (frozen section) [4]: minimal binding
Substance: ASYNYDA-GGGSK-FITC [Peptide 17-FITC]
percentage of Seg-1 cells with peptide binding on plasma membrane (Seg-1 cells): > 90% | percentage of GIL hTERT(HGD) cells with peptide binding on cytoplasm (GIL hTERT(HGD) cells): 1% | percentage of TE7 cells with peptide binding on cytoplasm (TE7 cells): 37% | average target-to-background ratio [1]: 5±2 | fluorescence at site of lesion after topical peptide ([1]; listed as FITC-labeled target peptide): Increased fluorescence intensity was observed at the site of the lesion | fluorescence at site of lesion after topical peptide ([1]; listed as target peptide): increased fluorescence intensity at the site of the lesion | fluorescence at site of lesion after topical peptide ([2]; 5 min incubation, rinsed, listed as FITC-labeled target peptide): increased fluorescence intensity at a site; also recorded: increased fluorescence intensity at the site of the lesion | target-to-background ratio (HGD vs non-dysplastic Barrett's metaplasia) ([2]; mean fluorescence of 5 independent regions): 1.52

peptide binding to Barrett's with high-grade dysplasia tissue ([8]; 100 μmol FITC-conjugated peptide in PBS, 15 min, fresh biopsy): bound | peptide binding to adjacent normal esophageal mucosa [9]: did not bind | peptide binding to duodenal mucosa (duodenal mucosa): did not bind | peptide binding to normal Barrett's tissue [10]: bound
Substance: ASYNYDA
fluorescence intensity with Seg-1 than with QhTERT cells [5]: 5 times | peptide binding to OE21 cells [6]: didn't binding | peptide binding to QhTERT cells [7]: didn't binding | inhibition of FITC-conjugated peptide binding to Seg1 cells by unconjugated peptide (Seg1 cells): can be inhibited | inhibition of FITC-conjugated peptide binding to Seg1 cells by unconjugated peptide (Seg1 cells; listed as unconjugated peptide 17): could be inhibited | quantization of peptide binding (fluorescence intensity, NIH Image J), HGD vs other tissues ([8]; HGD vs Barrett's, duodenal and normal esophageal mucosa, P<0.01): higher preferential bind on HGD than other tissues

Substance: YANSAYD [scrambled peptide-FITC]
peptide binding to Seg-1 cells (Seg-1 cells): did not bind on any cells | peptide binding to Seg-1 cells (Seg-1 cells; listed as Scrambled FITC-conjugated peptide): no binding
